Laboratory results published in patent US20110046147A1, “17BETA-HYDROXYSTEROID DEHYDROGENASE TYPE 1 INHIBITORS FOR THE TREATMENT OF HORMONE-RELATED DISEASES” (UNIVERSITAT DES SAARLANDES, priority 2007, published 2011).

Experiments:
CaCo2 transport assay = type: in vitro ADME; settings: human, Caco-2; 50 μM in donor compartment; read-out: Papp [cm/sec ± rel. SD]
Description: (§1) Performance of selected compounds in a CaCo2 assay: Caco-2 cell culture and transport experiments were performed according to Yee (Yee, S., Pharm. Res., 14(6): 763-766 (1997)), but slight modifications were introduced. The cultivation times were reduced from 21 to 10 days by increasing the sowing density from 6.3·10^4 to 1.65·10^5 cells per well. […] The initial concentration of the compounds in the donor compartment was 50 μM (in buffer with 1% ethanol or DMSO). Samples were taken from the acceptor side after 60, 120 and 180 min and from the donor side after 0 and 180 min. For glycoprotein P (P-gp) studies, bidirectional experiments were performed. The absorptive and secretory permeabilities (Papp (a-b) and Papp (b-a)) were determined. Thus, erythromycin was used as a substrate, and verapamil was used as an inhibitor of P-gp. Each experiment was performed in triplicate. The integrity of the monolayer was determined by means of TEER (transepithelial electric resistance) and the permeability for each assay was determined using Lucifer Yellow. All samples of the CaCo-2 transport experiments were analyzed by means of LC/MS/MS after dilution with buffer (1:1 with 2% acetic acid). The apparent permeability coefficient (Papp) was calculated by means of the formula given below, where dQ/dt represents the recovery rate of the mass in the acceptor compartment, A represents the surface area of the transwell membrane, and c0 represents the initial concentration in the donor compartment.

CaCo-2 cells = assay: CaCo2 transport assay; type: in vitro ADME; settings: 50 μM in donor compartment
Description: as §1

17β-HSD1 = biological target: T1, 17β-HSD1 (Homo sapiens, UniProt P14061); assay: Inhibition of 17β-HSD1 (estrone to estradiol, radio-HPLC); type: biochemical; settings: for IC50: human placenta enzyme, 500 nM estrone, NADH 500 μM; for Selectivity IC50 (17β-HSD2)/IC50 (17β-HSD1): ratio of IC50 values
T1 construct: In both cases, human placenta served as the enzyme source; from tissue; host or cells: human placenta
T1 sequence (P14061 1-328): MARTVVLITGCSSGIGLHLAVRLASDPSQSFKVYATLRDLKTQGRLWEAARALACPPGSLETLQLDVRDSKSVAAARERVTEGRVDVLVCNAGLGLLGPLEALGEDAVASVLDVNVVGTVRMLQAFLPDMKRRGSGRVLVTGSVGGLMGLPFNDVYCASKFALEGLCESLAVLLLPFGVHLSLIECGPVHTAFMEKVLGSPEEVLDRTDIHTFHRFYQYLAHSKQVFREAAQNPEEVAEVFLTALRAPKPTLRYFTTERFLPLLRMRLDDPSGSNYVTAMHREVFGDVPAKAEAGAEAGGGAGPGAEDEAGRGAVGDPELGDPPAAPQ
Description: In the 17β-HSD1 test, NADH is employed as a cosubstrate at a final concentration of 500 μM in order to avoid the product inhibition occurring with NADPH. The enzyme preparation is diluted with test buffer to such an extent that the control conversion is 10 to maximally 20% (about 1:650). As the substrate, estrone in a final concentration of 500 nM is used, of which 3 nM is tritiated. 2,4,6,7-[^3H]estrone is purchased from Perkin-Elmer, Boston. The inhibitor is added as a solution in DMSO (control: pure DMSO without inhibitor; the final concentration of DMSO in the assay is 1% in all cases).
(§2) After the reaction, the substrate and product are extracted by partitioning with ether, separated by chromatography (HPLC) and quantified by means of radiodetection.

17β-HSD2 = biological target: T2, 17β-HSD2 (Homo sapiens, UniProt P37059); assay: Inhibition of 17β-HSD2 (estradiol to estrone, radio-HPLC); type: biochemical; settings: human placenta microsome fraction, 500 nM estradiol, NAD+ 1500 μM
T2 construct: from tissue; host or cells: human placenta, microsome fraction
T2 sequence (P37059 1-387): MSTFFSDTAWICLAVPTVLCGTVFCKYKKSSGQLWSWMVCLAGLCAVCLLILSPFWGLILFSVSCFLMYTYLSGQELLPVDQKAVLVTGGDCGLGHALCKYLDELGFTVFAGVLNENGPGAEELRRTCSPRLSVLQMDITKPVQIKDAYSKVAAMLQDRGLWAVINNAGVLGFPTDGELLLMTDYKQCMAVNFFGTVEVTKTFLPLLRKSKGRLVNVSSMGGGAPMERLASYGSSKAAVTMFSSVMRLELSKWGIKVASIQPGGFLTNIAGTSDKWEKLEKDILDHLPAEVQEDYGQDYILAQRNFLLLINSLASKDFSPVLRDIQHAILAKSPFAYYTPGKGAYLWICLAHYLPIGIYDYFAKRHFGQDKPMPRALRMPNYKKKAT
Description: Determination of the inhibitory activity of the potential inhibitors: Inhibition of 17β-HSD1 and 17β-HSD2: In both cases, human placenta served as the enzyme source (Lin, S.-X. et al., J. Biol. Chem., 267: 16182-16187 (1992)).
In the 17β-HSD2 test, the natural cosubstrate NAD^+ is employed at a final concentration of 1500 μM. The microsome fraction is diluted in test buffer, so that a control conversion of 20 to 30% results (about 1:350). As the substrate, estradiol in a final concentration of 500 nM is used, of which 3 nM is tritiated. 2,4,6,7-[^3H]estradiol is also purchased from Perkin-Elmer, Boston. The inhibitor is added as a solution in DMSO (control: pure DMSO without inhibitor; the final concentration of DMSO in the assay is […]). After the addition of the substrate, incubation is performed at 37° C. for 20 minutes. The reaction is quenched by the addition of HgCl2 (final concentration of HgCl2: 0.166 mM).
as §2

estrogen receptor α = biological target: T3, estrogen receptor α (Homo sapiens, UniProt P03372); assay: Affinity for the estrogen receptor α (RBA); type: binding; settings: data not stated
T3 sequence (P03372 1-595): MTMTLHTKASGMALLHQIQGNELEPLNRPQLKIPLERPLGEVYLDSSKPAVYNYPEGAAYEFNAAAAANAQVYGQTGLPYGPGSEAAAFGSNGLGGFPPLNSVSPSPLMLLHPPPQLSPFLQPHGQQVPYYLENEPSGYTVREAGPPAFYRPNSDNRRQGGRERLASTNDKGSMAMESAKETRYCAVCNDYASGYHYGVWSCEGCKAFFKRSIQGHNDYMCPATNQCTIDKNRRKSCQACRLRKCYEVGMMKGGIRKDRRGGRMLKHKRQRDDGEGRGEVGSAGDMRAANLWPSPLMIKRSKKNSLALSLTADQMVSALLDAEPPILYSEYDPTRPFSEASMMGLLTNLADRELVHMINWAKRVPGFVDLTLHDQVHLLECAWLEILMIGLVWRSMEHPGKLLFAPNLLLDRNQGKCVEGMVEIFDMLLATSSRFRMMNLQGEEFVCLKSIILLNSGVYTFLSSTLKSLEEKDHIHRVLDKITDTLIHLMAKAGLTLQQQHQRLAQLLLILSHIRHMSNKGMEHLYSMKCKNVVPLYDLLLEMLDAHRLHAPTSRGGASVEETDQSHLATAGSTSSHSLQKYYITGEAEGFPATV
Description: Slight changes were made: The respective inhibitor was incubated at RT for 2 h with shaking.
The receptor affinities are established as RBA (relative binding affinity) values. The RBA value of the reference estradiol is set to 100%.

[1] = In vivo pharmacokinetics (rat), peroral cassette dosing; parameters: species or system Wistar rats; settings: 10 mg/kg
Description: In vivo pharmacokinetics (rat): The compounds 29, 45, 47 and 59 and a reference compound were administered to adult male Wistar rats (n=4) perorally in a cassette dosing method (vehicle: Labrasol/water 1/1). The plasma profiles were established by means of LC-MS/MS.
• Cmax obs highest measured concentration • Cz last analytically quantifiable concentration • tmax obs time to reach the highest measured concentration • tz time to withdrawal of the last sample with analytically quantifiable concentration • t1/2z half life (determined from the slope of the declining portion of the concentration vs. time curve • AUC0-tz area below the concentration vs. time curve up to time tZ • AUC0-∞ area below the concentration vs. time curve, extrapolated to ∞

CYP1A2 = biological target: T4, CYP1A2 (Homo sapiens, UniProt P05177); assay: Inhibition of hepatic CYP enzymes: CYP1A2; type: biochemical; settings: read-out: CYP1A2 IC50 (mean ± SD)
T4 construct: purchased Becton Dickinson GmbH (Heidelberg)
T4 sequence (P05177 1-516): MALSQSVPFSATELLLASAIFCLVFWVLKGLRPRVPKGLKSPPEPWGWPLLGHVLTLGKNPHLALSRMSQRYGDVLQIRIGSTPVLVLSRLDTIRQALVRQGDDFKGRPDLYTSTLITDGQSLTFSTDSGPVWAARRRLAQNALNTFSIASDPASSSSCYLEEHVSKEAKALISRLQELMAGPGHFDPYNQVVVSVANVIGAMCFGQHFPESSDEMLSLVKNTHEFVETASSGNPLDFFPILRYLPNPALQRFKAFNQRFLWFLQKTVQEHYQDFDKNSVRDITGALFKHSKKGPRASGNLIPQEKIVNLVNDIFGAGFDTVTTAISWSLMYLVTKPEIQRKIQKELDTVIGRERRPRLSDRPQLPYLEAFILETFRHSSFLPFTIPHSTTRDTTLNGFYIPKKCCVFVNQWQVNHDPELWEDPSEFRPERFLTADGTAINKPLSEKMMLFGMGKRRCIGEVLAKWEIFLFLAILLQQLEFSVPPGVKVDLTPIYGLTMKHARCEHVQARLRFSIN
From the text: (§3) Drug interactions (inhibition of hepatic CYP enzymes): The inhibition of six human hepatic cytochrome P450 enzymes by selected compounds was examined by means of the kit supplied by Becton Dickinson GmbH (Heidelberg).

CYP2C19 = biological target: T5, CYP2C19 (Homo sapiens, UniProt P33261); assay: Inhibition of hepatic CYP enzymes: CYP2C19; type: biochemical
T5 construct: purchased Becton Dickinson GmbH (Heidelberg)
T5 sequence (P33261 whole entry): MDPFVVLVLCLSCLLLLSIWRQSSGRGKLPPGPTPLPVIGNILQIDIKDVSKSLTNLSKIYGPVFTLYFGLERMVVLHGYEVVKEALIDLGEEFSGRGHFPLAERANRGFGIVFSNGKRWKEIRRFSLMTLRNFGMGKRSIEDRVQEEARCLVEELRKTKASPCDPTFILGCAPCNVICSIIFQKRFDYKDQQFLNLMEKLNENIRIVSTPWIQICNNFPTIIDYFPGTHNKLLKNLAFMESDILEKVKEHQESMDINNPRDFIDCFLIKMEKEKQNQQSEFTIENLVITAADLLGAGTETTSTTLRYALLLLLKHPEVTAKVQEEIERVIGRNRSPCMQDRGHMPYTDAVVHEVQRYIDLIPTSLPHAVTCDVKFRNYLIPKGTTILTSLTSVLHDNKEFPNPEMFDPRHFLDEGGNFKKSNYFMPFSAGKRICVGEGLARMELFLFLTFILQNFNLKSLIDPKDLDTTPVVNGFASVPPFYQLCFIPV
From the text: as §3

Compound	Papp at 180 min, 50 μM (CaCo2 transport assay) [×10⁻⁶ cm/s]	Permeability (class in words) (CaCo-2 cells)	IC50 (17β-HSD1) [nM]	Selectivity IC50 (17β-HSD2)/IC50 (17β-HSD1) (17β-HSD1)	IC50 (17β-HSD2) [nM]	other results
Oc1ccc(-c2cnc(-c3cccc(O)c3)o2)cc1 [Compound 8, 3-[5-(4-Hydroxyphenyl)-1,3-oxazole-2-yl]phenol]	7.9	medium-high	570	1.8	1020	–
Oc1ccc(-c2csc(-c3cccc(O)c3)n2)cc1 [Compound 23, 3-[4-(4-Hydroxyphenyl)-1,3-thiazole-2-yl]phenol]	–	–	320	–	–	affinity for the estrogen receptor (in words) (estrogen receptor α): negligible
Cc1cc(O)cc(-c2ccc(-c3ccc(O)cc3)s2)c1 [Compound 53, 3-[5-(4-Hydroxyphenyl)-2-thienyl]-5-methylphenol]	24.2	high	450	–	–	–
Oc1ccc(-c2nc(-c3cccc(O)c3)cs2)cc1 [Compound 24, 3-[2-(4-Hydroxyphenyl)-1,3-thiazole-4-yl]phenol]	–	–	–	–	–	inhibition at 1 µM (17β-HSD1; read-out: inhibition of 17β-HSD1 at 1 μM): 49%; affinity for the estrogen receptor (in words) (estrogen receptor α): negligible
Oc1ccc(-c2cccc(-c3ccc(O)cc3)c2)cc1 [Compound 41, [1,1′;3′,1″]Terphenyl-4,4″-diol]	12.6	high	1600	1.4	2200	–
Oc1ccc(-c2cc(-c3cccc(O)c3)on2)cc1 [Compound 18, 3-[3-(4-Hydroxyphenyl)isoxazole-5-yl]phenol]	7.3	medium-high	560	1.4	800	–

More lines, main results first:

Papp at 180 min, 50 μM (CaCo2 transport assay) [×10⁻⁶ cm/s]	Permeability (class in words) (CaCo-2 cells)	IC50 (17β-HSD1) [nM]	Selectivity IC50 (17β-HSD2)/IC50 (17β-HSD1) (17β-HSD1)	IC50 (17β-HSD2) [nM]	Compound	other results
3.6	medium	180	3.3	600	Oc1cccc(-c2nsc(-c3cccc(O)c3)n2)c1 [Compound 37]	–
11.7	high	180	17	3100	Oc1ccc(-c2ncc(-c3cccc(O)c3)s2)cc1 [Compound 20, 3-[2-(4-Hydroxyphenyl)-1,3-thiazole-5-yl]phenol]	–
7.8	medium-high	50	80	4000	Oc1ccc(-c2cnc(-c3cccc(O)c3)s2)cc1 [Compound 19, 3-[5-(4-Hydroxyphenyl)-1,3-thiazole-2-yl]phenol]	–
22	high	60	33	1950	Oc1ccc(-c2ccc(-c3cccc(O)c3)s2)cc1 [Compound 29, 3-[5-(4-Hydroxyphenyl)-2-thienyl]phenol]	tz (time of last sample with quantifiable concentration) [1]: 10.0 h; Cz (last analytically quantifiable concentration) ([1]; plasma): 6.56 ng/mL; AUC(0-t) ([1]; male, Wistar, plasma, po): 99.2 ng·h/mL; AUC(0-inf) ([1]; male, Wistar, plasma, po, extrapolated to ∞): 99.2 ng·h/mL; half-life ([1]; male, Wistar, plasma, po, read-out: t1/2z (half life) (converted)): 1.5 h; Tmax ([1]; male, Wistar, plasma, po, read-out: tmax obs (time to reach the highest measured concentration)): 8 h; Cmax ([1]; male, Wistar, po, plasma, read-out: Cmax obs (highest measured concentration)): 7.8 ng/mL
–	high	130	–	1700	Oc1ccc(-c2cc(-c3cccc(O)c3)cs2)cc1 [Compound 32, 3-[5-(4-Hydroxyphenyl)-3-thienyl]phenol]	IC50 (CYP1A2): 8680 ± 290 nM; IC50 (CYP2C19): 4430 ± 170 nM
